Experimental findings from article PMC3227566, “Targeting Acetylcholinesterase: Identification of Chemical Leads by High Throughput Screening, Structure Determination and Molecular Modeling” (PLoS ONE, 2011) are described below.

Like-named read-outs stand apart in the source and are kept apart here.

The assay addresses T1, recombinant hAChE (Homo sapiens, UniProt P22303).
T1 construct: made in house
The assay can be described thus: biochemical. From the text:
A chemical library consisting of 17 500 substances was screened using the colorimetric Ellman assay and recombinant hAChE. The hydrolysis of acetylthiocholine iodide was monitored and the average slope of the positive controls was set to 100% activity. […] Molecules in Set 1 were selected to represent the chemical space according to a Principal Component Analysis (PCA) of the hits' structural and physicochemical features (see section Chemical space of AChE inhibitors, below).
The screening was performed at the Umeå Small Molecule Screening Facility currently incorporated in the screening platform of the Laboratories for Chemical Biology, Umeå (LCBU). Recombinant hAChE was expressed and purified according to previously described methods, [46]. The enzymatic activity was measured using the Ellman assay adapted to a 96-well format. The final assay volume was 200 µL and all measurements were performed in 0.2 mM 5,5′-Dithiobis(2-nitrobenzoic acid) and 1 mM acethylthiocholine iodide in 0.1 M phosphate buffer pH 8.0. […] Stock solutions were prepared in DMSO and transferred to the assay plate using a Biomek NC robotic system (BeckanCoulter). The enzymatic reaction was monitored for 120 seconds using an Infinite M200 plate-reader (Tekan) at a ligand concentration of 50 µM and temperature of 20°C. Each plate contained 80 samples, 14 positive controls and two negative controls. […] Substances reducing the activity by at least 70% were scored as hits. […] For each inhibitor, the enzymatic activity was determined at eight concentrations selected to produce a dose-response curve that was subsequently analyzed using Prism.

[1] abbreviates: hits with determined crystal structures, mean ± standard deviation of 2–5 determinations, read-out: IC50.

T1 sequence (P22303 32-614): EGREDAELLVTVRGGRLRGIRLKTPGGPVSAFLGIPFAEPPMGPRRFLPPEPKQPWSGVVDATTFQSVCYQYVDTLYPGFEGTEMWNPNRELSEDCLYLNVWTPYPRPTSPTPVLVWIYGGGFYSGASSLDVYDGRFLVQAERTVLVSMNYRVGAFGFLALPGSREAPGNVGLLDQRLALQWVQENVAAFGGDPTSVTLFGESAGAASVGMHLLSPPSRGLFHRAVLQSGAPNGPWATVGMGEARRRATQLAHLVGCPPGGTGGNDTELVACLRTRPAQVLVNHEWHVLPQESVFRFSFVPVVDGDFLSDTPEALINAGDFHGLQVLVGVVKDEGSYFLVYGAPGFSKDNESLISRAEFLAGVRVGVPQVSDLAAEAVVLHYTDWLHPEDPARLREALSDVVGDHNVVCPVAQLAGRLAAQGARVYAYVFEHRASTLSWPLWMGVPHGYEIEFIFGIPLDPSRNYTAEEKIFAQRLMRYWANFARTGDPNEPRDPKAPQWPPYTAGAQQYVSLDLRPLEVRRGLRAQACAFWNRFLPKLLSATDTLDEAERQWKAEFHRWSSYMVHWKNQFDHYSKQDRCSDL

`CCN1CCCC1CNC(=O)c1cc([N+](=O)[O-])c(N(C)C)cc1OC` (centres unmarked) [Compound C5685]: the IC50 (in general, the concentration that gives 50% inhibition) was found to be 1.3 ± 0.1 µM. For `COc1ccc(C(=O)NC(=S)Nc2ccc(N3CCN(C)CC3)cc2)cc1[N+](=O)[O-]` [Compound C7643], the IC50 under setting [1] was found to be 0.54 ± 0.03 µM.

Regarding `COC(=O)CSc1nc(C)c(C)c(C)c1C#N` [Compound C5231], the IC50 under setting [1] stood at 36 ± 6.3 µM. Regarding `CCN(CC)CCCNc1oc(-c2ccc(Cl)cc2)nc1C#N` [Compound C7491], the IC50 under setting [1] was 21.4 ± 1.7 µM. Still for that read-out and setting: the figure for `CCN(CC)CCCNc1c([N+](=O)[O-])c(=O)n(C)c2ccccc12` [Compound C6905] is 2 ± 0.1 µM.
